Source: US6605589B1, “Cathepsin inhibitors in cancer treatment” (Parker Hughes Institute, priority 2000, dated 2003)

Legend:
Assay type in all cases: cell-based, human
[1] = system: SQ20B cells; experiment: TUNEL assay (DNA cleavage); conditions: 50 μM and 100 μM CATI-1, FIG. 3
Protocol: (§1) DNA cleavage as an indicator of apoptosis was determined using the in situ terminal deoxynucleotidyl transferase (TdT)-mediated dUTP nick-end-labeling method (TUNEL assay) of Boehringer Mannheim (Cell Death Detection Kit) as described in Zhu et al. (1999) Clin. Can. Res., 5:355-360. Briefly, CATI-1 treated cells and control cells were harvested and resuspended in phosphate-buffered saline (PBS) at a density of 5×10^6 cells/ml. Fifty μl of each cell suspension was placed into a PAP Pen (Zymed Laboratories Inc., South San Francisco, Calif.)-circled area on Superfrost/Plus slide (Fisher Scientific, Pittsburgh, Pa.) that was coated for cell adhesion. Cells were allowed to adhere to the slide for 10 minutes, washed with PBS and fixed with a 4% paraformadehyde in PBS solution for 20 minutes. After washing the slides twice with PBS, the cells were permeabilized by treatment with 100 μl of 20 mM SDS in PBS for 10 minutes. […] However, non-apoptotic cells incorporate only insignificant amounts of FITC-labeled dUTP due to the lack of exposed 3′-hydroxyl ends in intact DNA and consequently have much less green fluorescence than apoptotic cells. DNA bound PI emits strong red nuclear fluorescence from all the cells.

[2] = system: BT-20 cells; experiment: TUNEL assay (DNA cleavage); conditions: 50 μM and 100 μM CATI-1, FIG. 3
Protocol: as §1

[3] = system: RAMOS (NHL); experiment: In vitro clonogenic assay; conditions: for %, inhibition / Mean no, of colonies: 24 hours
Protocol: (§2) In vitro clonogenic assays were carried out to determine the cytotoxic activity of the cathepsin inhibitor I (CATI-1) (Z-Phe-Gly-NHO-Bz) against cancer cells. The cancer cell lines used in the assay were U373 (glioblastoma), BT-20 (breast cancer), SQ20B (squamous cell carcinoma), RS4;11 (pro-B ALL), ALL-1 (pre-pre-B ALL), KM-3, MOLT-3 (T-ALL), JURKAT (T-ALL), K-562 (CML), HL-60 (AML), DAUDI (NHL), RAMOS (NHL) and RAJI (NHL). Each cell line was treated under several concentrations of CATI-1 for 24 hours, washed with serum free medium and resuspended in clonogenic medium having 10% fetal bovine serum and 0.9% methylcellulose. Resuspended cells were plated in duplicate 35-mm Petri dishes at 10,000 to 20,000 cells per dish and cultured at 37° C. in a humidified 5% CO2 atmosphere for 5 to 7 days.
(§3) Images of colonies in each dish were taken by a digital camera (Princeton Instruments, Inc.) linked to a microscope (Nikon Diaphot 200). Colony numbers were determined using an inverted phase microscope and percent inhibition of colony formation determined using the formula:
(§4) % inhibition=(1−(colony number in test sample/colony number in control sample))×100.

[4] = system: HL-60 (AML); experiment: In vitro clonogenic assay; conditions: CATI-1 10 uM, 24 hours
Protocol: as §2, §3, §4

[5] = system: KM-3 (pre-B ALL); experiment: In vitro clonogenic assay; conditions: 24 hours
Protocol: as §2, §3, §4

[6] = system: ALL-1 (pre-pre B ALL); experiment: In vitro clonogenic assay; conditions: for %, inhibition / Mean no, of colonies: 24 hours
Protocol: as §2, §3, §4

[7] = system: all tested cell lines, solid and blood cell; experiment: In vitro clonogenic assay, all tested cell lines; conditions: JURKAT, KM3, DAUDI, RAJI (BAX deficient)
Protocol: as §2, §3
% inhibition=(1−(colony number in test sample/colony number in control sample))×100. […]

[8] = read-out: IC50 (colony formation)

O=C(CNC(=O)[C@H](Cc1ccccc1)NC(=O)OCc1ccccc1)NOC(=O)c1ccccc1 [CATI-1, Z-Phe-Gly-NHO-Bz]
DNA fragmentation (TUNEL) [1]: nuclear green fluorescence consistent with DNA fragmentation | DNA fragmentation (TUNEL) [2]: nuclear green fluorescence consistent with DNA fragmentation | %, inhibition ([3]; CATI-1 10 uM): 47.1% | Mean no, of colonies ([3]; CATI-1 10 uM): 1442 (1344, 1540) | %, inhibition ([3]; CATI-1 20 uM): 78.2% | Mean no, of colonies ([3]; CATI-1 20 uM): 594 (660, 528) | %, inhibition ([3]; CATI-1 35 uM): 100% | Mean no, of colonies ([3]; CATI-1 35 uM): 0 (0, 0) | IC50 [3, 8]: 10.1 µM | %, inhibition [4]: 100% | Mean no, of colonies [4]: 0 (0, 0) | %, inhibition ([5]; CATI-1 10 uM): 79.2% | Mean no, of colonies ([5]; CATI-1 10 uM): 578 (520, 636) | %, inhibition ([5]; CATI-1 20 uM): 100% | Mean no, of colonies ([5]; CATI-1 20 uM): 0 (0, 0) | %, inhibition ([6]; CATI-1 10 uM): 80.4% | Mean no, of colonies ([6]; CATI-1 10 uM): 338 (348, 328) | %, inhibition ([6]; CATI-1 20 uM): 99.6% | Mean no, of colonies ([6]; CATI-1 20 uM): 7 (6, 8) | %, inhibition ([6]; CATI-1 35 uM): 100% | Mean no, of colonies ([6]; CATI-1 35 uM): 0 (0, 0) | IC50 [6, 8]: 6.2 µM | susceptibility of BAX deficient cell lines to CATI-1 [7]: highly susceptible
